The source of these data is patent publication US10150737B2, “Compounds for controlling arthropods” (priority 2013, dated 2018).

Structures are written as SMILES.

Series [1] concerns Ctenocephalides felis. The series is described as follows: Ctenocephalides felis - oral test. The note with it: application rate 100 ppm in citrated cattle blood; after 2 days. The format is in vivo. An outline of the steps:
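Compound in DMSO diluted into citrated cattle blood, fed through a parafilm membrane to about 20 unfed adult cat fleas. Kill in % scored after 2 days (100% = all dead).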

For a further series, the system named is Rhipicephalus sanguineus. The series is described as follows: Rhipicephalus sanguineus - in vitro contact tests with adult brown dog ticks. Type of series: in vivo. The note with it: application rate 5 μg/cm2; after 48 h; ticks dead or moribund. The procedure: For the coating of the test tubes, 9 mg of active ingredient are first dissolved in 1 ml of acetone p.a. and then diluted to the desired concentration with acetone p.a. 250 μl of the solution are distributed homogeneously on the inner walls and base of a 25 ml test tube by turning and rocking on an orbital shaker (rocking rotation at 30 rpm for 2 h). With 900 ppm active ingredient solution and internal surface 44.7 cm^2, given homogeneous distribution, an area-based dose of 5 μg/cm^2 is achieved.
After the solvent has evaporated off, the tubes are populated with 5-10 adult dog ticks (Rhipicephalus sanguineus), sealed with a perforated plastic lid and incubated in a horizontal position in the dark at room temperature and ambient humidity. After 48 h, efficacy is determined. To this end, the ticks are knocked to the floor of the tube and incubated on a hotplate at 45-50° C. for not more than 5 min. Ticks which remain motionless on the floor or move in such an uncoordinated manner that they are unable to deliberately avoid the heat by climbing upwards are considered to be dead or moribund.
An efficacy of 100% means that all the ticks were dead or moribund. 0% efficacy means that none of the ticks had been harmed.

In a further series the test system is Phaedon cochleariae. The series is described as follows: Phaedon cochleariae - spray test. Type of series: in vivo. The following applies: larvae on Chinese cabbage leaf discs, after 7 days. An outline of the steps: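 Chinese cabbage leaf discs sprayed with compound formulated in acetone/DMF and water containing 1000 ppm emulsifier; once dry, infested with mustard beetle larvae. Efficacy (% larvae killed) scored after 7 days.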

In the next series the test system is Musca domestica. The series is described as follows: Musca domestica test. The format is in vivo. The note with it: application rate 100 ppm; adult houseflies; after 2 days. An outline of the steps: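 Feeding exposure: adult Musca domestica, 10 per vessel, given a sponge with sugar solution and test formulation at the desired concentration; % mortality determined on day 2.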

A further series relates to Boophilus microplus. The series is described as follows: Boophilus microplus - injection test. Type of series: in vivo. The note with it: application rate 20 μg/animal; injection into engorged adult female ticks; after 7 days. Put shortly: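 Active ingredient in DMSO, 1 μl injected into the abdomen of 5 engorged adult female ticks, then held in a climate-controlled room. Efficacy scored after 7 days from laying of fertile eggs, with non-fertile-looking eggs kept about 42 days for larval hatch; 100% means no fertile eggs.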

For a further series, the system named is Myzus persicae. The series is described as follows: Myzus persicae - spray test. The note with it: Chinese cabbage leaf discs, after 6 days. Type of series: in vivo. Put shortly: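 Chinese cabbage leaf discs carrying all stages of Myzus persicae sprayed with compound in acetone/DMF diluted in water with 1000 ppm emulsifier. Efficacy (% aphids killed) assessed after 6 days.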

A short description of series [2]: logP determination by HPLC on a reversed-phase column (C18). The format is physicochemical. The following applies: for logP^a): HPLC-MS method a); for log P: HPLC-MS.
In the next series the test system is Lucilia cuprina. The series can be described thus: Lucilia cuprina test. The format is in vivo. The following applies: application rate 100 ppm; L1 larvae; after 2 days. An outline of the steps: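 About 20 L1 larvae placed on minced horsemeat treated with compound, formulated in DMSO and diluted with water to test concentration. Kill in % scored after 2 days (100% = all larvae dead, 0% = none).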

A further series relates to Spodoptera frugiperda. The series is described as follows: Spodoptera frugiperda - spray test. The format is in vivo. The note with it: caterpillars on maize leaf discs, after 7 days. An outline of the steps: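 Maize leaf discs sprayed with compound formulated in acetone/DMF and diluted in water containing 1000 ppm alkylaryl polyglycol ether emulsifier, then infested with armyworm caterpillars after drying. Efficacy scored after 7 days as % caterpillars killed (100% all, 0% none).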

In a further series the test system is Tetranychus urticae. The series can be described thus: Tetranychus urticae - spray test, OP-resistant. The format is in vivo. The note with it: bean leaf discs, after 6 days. Put shortly:
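Compound dissolved in acetone/DMF, diluted with water containing 1000 ppm alkylaryl polyglycol ether emulsifier to test concentrations. Bean leaf discs infested with all stages of spider mites were sprayed; % kill determined after 6 days (100% = all mites dead, 0% = none).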

Series [3] has as its system Ctenocephalides felis. The series can be described thus: Ctenocephalides felis - in vitro contact tests with adult cat fleas. The format is in vivo. The following applies: application rate 5 μg/cm2 (=500 g/ha); after 48 h; fleas dead or moribund. An outline of the steps:
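Tubes coated with compound in acetone (250 μl of 900 ppm solution gives 5 μg/cm^2 on 44.7 cm^2), solvent evaporated, then 5–10 adult fleas added and kept horizontal at room temperature and ambient humidity. After 48 h, dead or moribund (motionless/uncoordinated) fleas scored as % efficacy.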

Where [4] appears, read: reversed-phase column (C18), Table I-T3.

As to `CCc1cc(C(F)(C(F)(F)F)C(F)(F)F)ccc1-n1cc(-c2ccc(Cl)c(C(=O)NC3(C#N)CC3)c2)cn1` [I-T3-38], the “efficacy (kill)” value in the series with Ctenocephalides felis [1], with Musca domestica and in the series on Lucilia cuprina was 100% each time. Moreover, the efficacy in the series on Rhipicephalus sanguineus is 80%; in the series with Phaedon cochleariae (application rate 100 g/ha), 100%; with Myzus persicae (application rate 100 g/ha) it was 90%; in the series on Spodoptera frugiperda (application rate 100 g/ha) it was 100%; in the series on Tetranychus urticae (application rate 100 g/ha), 100%. In the series on Boophilus microplus, the “efficacy (laying of fertile eggs)” value amounted to 100%. For the same compound, the “logP^a)” value in [2] and in [2] (setting [4]) was 4.5 throughout.

Regarding `CCc1cc(C(F)(C(F)(F)F)C(F)(F)F)cc(C)c1-n1cc(-c2ccc(Cl)c(C(=O)NC3(C#N)CC3)c2)cn1` [I-T3-46], the efficacy in the series with Ctenocephalides felis [3], with Rhipicephalus sanguineus, with Phaedon cochleariae (application rate 500 g/ha), with Myzus persicae (application rate 500 g/ha), in the series on Spodoptera frugiperda (application rate 500 g/ha) and with Tetranychus urticae (application rate 500 g/ha) was 100% throughout. Further, the “efficacy (kill)” value in the series on Ctenocephalides felis [1], with Musca domestica and with Lucilia cuprina was 100% throughout. Also, the “efficacy (laying of fertile eggs)” value in the series on Boophilus microplus is 100%. Besides, the “logP^a)” value in series [2] and in [2] (setting [4]) was 4.6 in each case.

Consider `O=C(NC1CC1)c1cc(-c2cnn(-c3c(Cl)cc(OC(F)(F)F)cc3Cl)c2)ccc1Cl` [I-T3-88], for which the efficacy with Ctenocephalides felis [3] stood at 100%; in the series with Rhipicephalus sanguineus, 80%; with Phaedon cochleariae (application rate 100 g/ha), 100%; in the series on Myzus persicae (application rate 100 g/ha) it was 100%; in the series with Spodoptera frugiperda (application rate 100 g/ha) it was 100%; with Tetranychus urticae (application rate 100 g/ha) it was 100%. Besides, the “efficacy (kill)” value in the series on Ctenocephalides felis [1] was 100%; in the series on Musca domestica it was 80%; with Lucilia cuprina, 100%. Moreover, the “efficacy (laying of fertile eggs)” value in the series with Boophilus microplus is on record as 100%. In addition, the “logP^a)” value in series [2] and in series [2] (setting [4]) was 3.6 each time.

In the case of `COc1ncc(-c2cnn(-c3c(C)cc(C(F)(C(F)(F)F)C(F)(F)F)cc3C)c2)cc1C(=O)NC1CC1` [I-T3-143], the efficacy with Ctenocephalides felis [3] was found to be 100%; in the series with Rhipicephalus sanguineus it was 80%; with Phaedon cochleariae (application rate 100 g/ha), 100%; with Spodoptera frugiperda (application rate 100 g/ha), 100%. Also, the “efficacy (kill)” value in the series on Ctenocephalides felis [1], with Musca domestica and in the series with Lucilia cuprina was 100% throughout. Further, the “efficacy (laying of fertile eggs)” value in the series on Boophilus microplus is on record as 100%. Further, in [2] (reversed-phase column (C18)), the “logP^a)” value is on record as 4.6. The log P (commonly a log measure of how a compound divides between an organic and an aqueous phase) in series [2] (setting [4]) amounted to 4.6.

For the compound `Cc1cc(C(F)(C(F)(F)F)C(F)(F)F)cc(C)c1-c1cnn(-c2ccc(Cl)c(C(=O)NC3(C#N)CC3)c2)c1` [I-T4-2], the efficacy is 100% in the series with Ctenocephalides felis [3]; 100% in the series with Rhipicephalus sanguineus; 100% in the series on Phaedon cochleariae (application rate 100 g/ha); 90% with Myzus persicae (application rate 20 g/ha); 100% with Spodoptera frugiperda (application rate 100 g/ha); 100% in the series on Tetranychus urticae (application rate 100 g/ha). Besides, the “efficacy (kill)” value in the series with Ctenocephalides felis [1], with Musca domestica and in the series on Lucilia cuprina was 100% throughout. For the same compound, in the series with Boophilus microplus, the “efficacy (laying of fertile eggs)” value was 100%. For the same compound, in [2] (HPLC, C18 reversed phase, acetonitrile/water with formic acid, EEC Directive 79/831 Annex V.A8), the logP (as a rule, a log measure of how a compound divides between an organic and an aqueous phase) is listed as 4.6.

`O=C(NC1CC1)c1cc(-c2cnn(-c3c(Cl)cc(C(F)(C(F)(F)F)C(F)(F)F)cc3OC(F)(F)F)c2)cnc1Cl` [I-T3-189]: the efficacy in the series on Ctenocephalides felis [3], with Rhipicephalus sanguineus, in the series with Phaedon cochleariae (application rate 100 g/ha), with Myzus persicae (application rate 100 g/ha), in the series on Spodoptera frugiperda (application rate 100 g/ha) and with Tetranychus urticae (application rate 100 g/ha) was 100% each time. Also, the “efficacy (kill)” value with Ctenocephalides felis [1], in the series on Musca domestica and with Lucilia cuprina was 100% throughout. The “log P” value in series [2] (setting [4]) came to 4.3.
